Experimental data: article PMC6934184, “Selective DNA-PKcs inhibition extends the therapeutic index of localized radiotherapy and chemotherapy” (The Journal of Clinical Investigation, 2019)

Molecular target: T1, EPHA1 (Homo sapiens, UniProt P21709)
T1 construct: purchased Thermo Fisher Scientific (Life Technologies) SelectScreen
Assay: SelectScreen Z'LYTE
Format: biochemical
In short: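 Compound tested in SelectScreen activity assays, Z'LYTE for CSF1R, CDK1/cyclin B and MAP2K6 and Adapta for CAMK1. ATP for CAMK1 was listed as 10, and Km app was used for CSF1R. Results are expressed in percent.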

T1 sequence (P21709 26-976): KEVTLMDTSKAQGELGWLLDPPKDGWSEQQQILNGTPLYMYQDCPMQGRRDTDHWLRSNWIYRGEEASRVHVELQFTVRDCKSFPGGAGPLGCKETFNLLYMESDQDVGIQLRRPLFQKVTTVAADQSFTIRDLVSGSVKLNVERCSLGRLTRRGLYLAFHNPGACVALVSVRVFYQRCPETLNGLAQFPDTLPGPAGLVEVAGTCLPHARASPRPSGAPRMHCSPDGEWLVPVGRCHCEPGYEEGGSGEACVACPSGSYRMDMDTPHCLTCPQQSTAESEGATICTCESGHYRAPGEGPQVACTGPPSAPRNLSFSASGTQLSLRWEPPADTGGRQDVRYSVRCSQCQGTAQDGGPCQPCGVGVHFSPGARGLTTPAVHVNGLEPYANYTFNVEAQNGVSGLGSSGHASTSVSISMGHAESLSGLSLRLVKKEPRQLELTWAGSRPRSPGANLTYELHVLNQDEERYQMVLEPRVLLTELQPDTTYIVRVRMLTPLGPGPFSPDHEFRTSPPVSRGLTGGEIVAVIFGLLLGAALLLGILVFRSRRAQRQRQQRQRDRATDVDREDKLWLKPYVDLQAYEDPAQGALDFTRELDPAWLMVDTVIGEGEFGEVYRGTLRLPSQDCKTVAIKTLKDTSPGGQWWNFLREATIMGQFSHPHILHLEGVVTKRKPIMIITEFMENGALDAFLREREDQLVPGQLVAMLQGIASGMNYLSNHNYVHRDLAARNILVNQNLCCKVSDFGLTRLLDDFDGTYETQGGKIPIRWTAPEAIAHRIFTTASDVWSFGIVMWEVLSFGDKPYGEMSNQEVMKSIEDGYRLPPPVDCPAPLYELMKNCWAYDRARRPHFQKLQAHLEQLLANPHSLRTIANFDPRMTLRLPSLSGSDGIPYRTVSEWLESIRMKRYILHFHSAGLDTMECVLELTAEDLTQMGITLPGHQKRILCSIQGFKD

## CN(C(=O)CN1CCOCC1)c1ccc2sc3c(-c4cccc5c(=O)cc(N6CC7CCC(C6)O7)oc45)cccc3c2c1 [NU5455]
  inhibition at 1 µM: 2.7%
